Test results: patent US7404948B2, “Peptidic conjugates for alopecia prevention and treatment” (Institut Europeen de Biologie Cellulaire, priority 2003, dated 2008)
Non-standard residues stand in square brackets, D forms with d. hPhe = N[C@@H](CCc1ccccc1)C(=O)O

Test system: anagen-phase mouse vibrissae hair follicles
Experiment: Growth of mouse vibrissae in vitro (hair follicle culture, Philpott technique)
Assay type: cell-based
Set-up: unit not given here
Settings: peptide 10^−7 M, A is acetic acid
Source text: The Effects of Various Peptides on the Growth of Mouse Vibrissae In Vitro
The growth of the hair shaft of these hair follicles was followed for several days (Day 0 to Day 4). The results are reported in the table below for peptides 1- and 2-described above, for which A is acetic acid.

Substance | growth of the hair shaft (Day 0) | growth of the hair shaft (Day 1) | growth of the hair shaft (Day 2) | growth of the hair shaft (Day 3) | growth of the hair shaft (Day 4)
Ac-Arg-Lys-Asp-Val-HomoPhe-NH2 (Ac-RKDV[hPhe]-NH2; also: acetate salt) [Peptide 2-] | 0.00 | 0.83 | 1.46 | 1.62 | 1.62
A-Arg-Lys-Asp-Val-DHomoPhe-NH2 [Peptide 1-] | 0.00 | 0.90 | 1.38 | 1.86 | 1.87
